The values that follow come from ChEMBL document CHEMBL1159261, “New bioactive monotetrahydrofuran Annonaceous acetogenins, annomuricin C and muricatocin C, from the leaves of Annona muricata” (J Nat Prod, 1995).

Values after ≈ are worked out from the molar mass of the structure shown.

For data set [1], the system named is HT-29. As to the kind of experiment: Cytotoxicity against human HT-29 cells after 7 days by MTT assay. As to conditions: HT-29, 168 h, read-out: ED50 (the source's name). Type of data set: functional.
In data set [2] the test system is MCF7. As to the kind of experiment: Cytotoxicity against human MCF7 cells after 7 days by MTT assay. Type of data set: functional. As to conditions: MCF7, 168 h, read-out: ED50 (the source's name). (In general: Tetrazolium dyes change colour on reduction, which living cells bring about.)
A short description of data set [3]: Toxicity against brine shrimp. The settings on record: artemia, in vivo; read-out: LD50 (the source's name). Format: organism-based.
Data set [4] deals with A549. As to the kind of experiment: Cytotoxicity against human A549 cells after 7 days by MTT assay. As to conditions: A549, 168 h, read-out: ED50 (the source's name). Type of data set: functional.

In the case of `CCCCCCCCCCCC[C@@H](O)[C@H]1CC[C@H]([C@H](O)CCC[C@@H]2OC(C)(C)O[C@@H]2CCCCC[C@@H](O)CC2=C[C@H](C)OC2=O)O1`, the values for the EC50 in data set [1], in data set [2] and in data set [4] were 1.41 µg/mL (≈ 2.16 µM), 0.00481 µg/mL (≈ 0.00737 µM) and 0.0698 µg/mL (≈ 0.107 µM), respectively. The LC50 in data set [3] came out at 0.235 µg/mL (≈ 0.36 µM).

In the case of `CCCCCCCCCCCC[C@@H](O)[C@H]1CC[C@H]([C@H](O)CC[C@@H]2C[C@@H](CCCCC[C@@H](O)CC3=C[C@H](C)OC3=O)OC(C)(C)O2)O1`, the EC50 in data set [1] is 0.261 µg/mL (≈ 0.4 µM); in data set [2], 0.00398 µg/mL (≈ 0.0061 µM); in data set [4] it was 0.00376 µg/mL (≈ 0.00576 µM). In addition, in data set [3], the LC50 is 0.189 µg/mL (≈ 0.289 µM).

As for `CCCCCCCCCCCC[C@@H](O)[C@H]1CC[C@H]([C@H](O)CCC[C@H](O)[C@@H](O)CCCCC[C@@H](O)CC2=C[C@H](C)OC2=O)O1` [ANNOMURICIN C], the values for the EC50 in data set [1], in data set [2] and in data set [4] were 1.54 µg/mL (≈ 2.51 µM), 0.228 µg/mL (≈ 0.372 µM) and 0.308 µg/mL (≈ 0.503 µM), respectively. The LC50 in data set [3] turned out to be 0.613 µg/mL (≈ 1 µM).

As for `COc1cccc2c1C(=O)c1c(O)c3c(c(O)c1C2=O)C[C@@](O)(C(=O)CO)C[C@@H]3O[C@H]1C[C@H](N)[C@H](O)[C@H](C)O1` [DOXORUBICIN], the EC50 in data set [1] came out at 0.0348 µg/mL (≈ 0.064 µM); in data set [2], 0.106 µg/mL (≈ 0.195 µM).

Regarding `CCCCCCCCCCCC[C@@H](O)[C@H]1CC[C@H]([C@H](O)CC[C@@H](O)C[C@H](O)CCCCC[C@@H](O)CC2=C[C@H](C)OC2=O)O1` [MURICATOCIN C], the EC50 in data set [1] came to 1.48 µg/mL (≈ 2.41 µM); in data set [2], 0.0645 µg/mL (≈ 0.105 µM); in data set [4] it was 0.0909 µg/mL (≈ 0.148 µM). The LC50 in data set [3] worked out at 0.604 µg/mL (≈ 0.985 µM).
